This is an account of results in ChEMBL document CHEMBL1147550, “Capped dipeptide phenethylamide inhibitors of the HCV NS3 protease” (Bioorg Med Chem Lett, 2004).

This test addresses Genome polyprotein (Hepatitis C virus genotype 1a (isolate 1) (HCV), UniProt P26664). Nature of the test: Inhibition of Hepatitis C virus NS3 protease in vitro.

Genome polyprotein, sequence (P26664 1027-1657 limits assumed): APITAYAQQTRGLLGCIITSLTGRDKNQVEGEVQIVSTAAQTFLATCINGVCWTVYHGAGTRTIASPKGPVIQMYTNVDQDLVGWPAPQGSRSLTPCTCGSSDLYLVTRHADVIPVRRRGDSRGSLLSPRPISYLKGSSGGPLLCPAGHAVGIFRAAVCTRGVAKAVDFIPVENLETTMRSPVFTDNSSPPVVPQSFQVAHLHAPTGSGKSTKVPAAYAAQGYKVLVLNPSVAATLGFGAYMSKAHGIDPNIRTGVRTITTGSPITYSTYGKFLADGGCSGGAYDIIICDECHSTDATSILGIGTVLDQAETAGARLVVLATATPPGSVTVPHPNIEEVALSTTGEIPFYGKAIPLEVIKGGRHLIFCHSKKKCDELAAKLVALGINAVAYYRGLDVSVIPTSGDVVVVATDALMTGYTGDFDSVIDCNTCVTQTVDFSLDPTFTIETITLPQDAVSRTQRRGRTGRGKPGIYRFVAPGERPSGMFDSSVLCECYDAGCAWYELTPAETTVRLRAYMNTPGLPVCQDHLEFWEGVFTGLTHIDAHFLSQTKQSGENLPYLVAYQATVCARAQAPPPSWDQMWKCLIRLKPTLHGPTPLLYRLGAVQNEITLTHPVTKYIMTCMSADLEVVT

On to `CC(C)[C@H](O)C(=O)N1C[C@H](OCc2ccc(Br)cc2)C[C@H]1C(=O)N[C@@H](CC(F)F)C(=O)NCCc1c(F)cc(C(=O)O)cc1F`, for which the IC50 (commonly the concentration at which inhibition is half-maximal) amounted to 12 µM. Next, `CC(C)[C@@H](O)C(=O)N1C[C@H](c2ccccc2)C[C@H]1C(=O)N[C@@H](CC(F)F)C(=O)NCCc1c(F)cc(C(=O)O)cc1F`: above 100 µM; `O=C(O)c1cc(F)c(CCNC(=O)[C@H](CC(F)F)NC(=O)[C@@H]2C[C@@H](c3ccccc3)CN2C(=O)[C@@H](O)C2CCCCC2)c(F)c1`: 14 µM. As for `O=C(O)c1cc(F)c(CCNC(=O)[C@H](CC(F)F)NC(=O)[C@@H]2C[C@@H](c3ccccc3)CN2C(=O)[C@H](O)c2ccccc2)c(F)c1`, the figure is above 100 µM; as for `CC(C)[C@H](O)C(=O)N1C[C@H](OC2CCCCC2)C[C@H]1C(=O)N[C@@H](CC(F)F)C(=O)NCCc1c(F)cc(C(=O)O)cc1F`, 32 µM. As for `CC(C)[C@H](O)C(=O)N1C[C@H](OCc2ccccc2)C[C@H]1C(=O)N[C@@H](CC(F)F)C(=O)NCCc1c(F)cc(C(=O)O)cc1F`, the figure is 27 µM; as for `CC(C)COC(=O)N[C@H](C(=O)N[C@@H](CC(C)C)C(=O)N[C@@H](CC(F)F)C(=O)NCCc1ccc(C(=O)O)cc1Cl)C(C)C`, 2.4 µM. Take `O=C(O)c1cc(F)c(CCNC(=O)[C@H](CC(F)F)NC(=O)[C@@H]2C[C@@H](c3ccccc3)CN2C(=O)CC2CCCC2)c(F)c1`: the IC50 was found to be 34 µM. For `O=C(O)c1cc(F)c(CCNC(=O)[C@H](CC(F)F)NC(=O)[C@@H]2C[C@@H](c3ccccc3)CN2C(=O)[C@H](O)C2CCCC2)c(F)c1`, half-maximal inhibition (IC50) required 62 µM. In the case of `CC(C)C[C@H](NC(=O)[C@H](O)c1ccccc1)C(=O)N[C@@H](CC(F)F)C(=O)C(=O)O`, it took 3 µM to reach half-maximal inhibition (IC50). `CCC(CC)C(O)C(=O)N1C[C@H](c2ccccc2)C[C@H]1C(=O)N[C@@H](CC(F)F)C(=O)NCCc1c(F)cc(C(=O)O)cc1F` (stereo partly specified): the 50% inhibitory concentration (IC50) was 50 µM.

The compound `CC(C)(C)[C@H](O)C(=O)N1C[C@H](c2ccccc2)C[C@H]1C(=O)N[C@@H](CC(F)F)C(=O)NCCc1c(F)cc(C(=O)O)cc1F` returned an IC50 of 18 µM.

`CC(C)COC(=O)N[C@H](C(=O)N1C[C@H](c2ccccc2)C[C@H]1C(=O)N[C@@H](CC(F)F)C(=O)NCCc1c(F)cc(C(=O)O)cc1F)C(C)C` gave an IC50 of 0.9 µM. On to `CC(C)[C@H](O)C(=O)N1C[C@H](OCc2ccccc2Cl)C[C@H]1C(=O)N[C@@H](CC(F)F)C(=O)NCCc1c(F)cc(C(=O)O)cc1F`, for which the IC50 was above 100 µM. As for `O=C(O)c1cc(F)c(CCNC(=O)[C@H](CC(F)F)NC(=O)[C@@H]2C[C@@H](c3ccccc3)CN2C(=O)C(O)C2CC2)c(F)c1` (stereo partly specified), the figure is above 100 µM; as for `O=C(O)c1cc(F)c(CCNC(=O)[C@H](CC(F)F)NC(=O)[C@@H]2C[C@@H](c3ccccc3)CN2C(=O)[C@@H](O)C2CCCC2)c(F)c1`, 13 µM.

`CC(C)[C@H](O)C(=O)N1C[C@H](OCCCc2ccccc2)C[C@H]1C(=O)N[C@@H](CC(F)F)C(=O)NCCc1c(F)cc(C(=O)O)cc1F` returned an IC50 of 11 µM. The IC50 values of the last two compounds are within 1.5-fold of each other. Next, `O=C(O)c1cc(F)c(CCNC(=O)[C@H](CC(F)F)NC(=O)[C@@H]2C[C@@H](c3ccccc3)CN2C(=O)[C@@H](O)c2ccccc2)c(F)c1`: above 100 µM; `CC(C)CC(=O)N1C[C@H](c2ccccc2)C[C@H]1C(=O)N[C@@H](CC(F)F)C(=O)NCCc1c(F)cc(C(=O)O)cc1F`: 58 µM. Next, `CC(C)[C@H](O)C(=O)N1C[C@H](c2ccccc2)C[C@H]1C(=O)N[C@@H](CC(F)F)C(=O)NCCc1c(F)cc(C(=O)O)cc1F`: 18 µM; `O=C(O)c1cc(F)c(CCNC(=O)[C@H](CC(F)F)NC(=O)[C@@H]2C[C@@H](c3ccccc3)CN2C(=O)C(O)Cc2ccccc2)c(F)c1` (stereo partly specified): above 100 µM.
